Measured values as given in ChEMBL document CHEMBL1137703, “Predictive QSAR modeling of HIV reverse transcriptase inhibitor TIBO derivatives” (Eur J Med Chem, 2009).

biological target: Human immunodeficiency virus type 1 reverse transcriptase (Human immunodeficiency virus 1, UniProt Q72547); assay: Inhibition of HIV1 reverse transcriptase; settings: not given

SMILES | log(1/IC50)
CCCN1Cc2cccc3[nH]c(=S)n(c23)CC1C (configuration not stated) | 5.78
CCCN1CCn2c(=S)[nH]c3cccc(c32)C1C (configuration not stated) | 5.61
CCCN1Cc2cccc3[nH]c(=O)n(c23)CC1C (configuration not stated) | 4.22
CC1CN(CC2CC2)Cc2cc(Cl)cc3[nH]c(=S)n1c23 (configuration not stated) | 5.66

same assay, conditions: read-out: log(1/IC50) (converted)

SMILES | IC50 [nM]
C=C(C)N1Cc2cccc3[nH]c(=O)n(c23)C(CCC)C1 (configuration not stated) | 47900
C=C(C)N1CCn2c(=O)[nH]c3cccc(c32)C1 | 46800
CC(C)=CN1CCn2c(=S)[nH]c3ccc(Cl)c(c32)C1C (configuration not stated) | 12
CC(C)=CN1Cc2c(C=O)ccc3[nH]c(=S)n(c23)C[C@@H]1C | 186
CC(C)=CN1Cc2cccc3[nH]c(=O)n(c23)[C@@H](C)[C@H]1C (relative stereo) | 56200
CC(C)=CN1Cc2c(C#N)ccc3[nH]c(=O)n(c23)C[C@@H]1C | 1150
CC(C)=CN1[C@H](C)Cn2c(=O)[nH]c3cc(Cl)cc(c32)[C@H]1C | 229
C=C(C)N1Cc2cccc3[nH]c(=O)n(c23)CC1C (configuration not stated) | 34700
CC(C)=CN1Cc2cccc3[nH]c(=S)n(c23)[C@@H](C)[C@H]1C (relative stereo) | 2240
CC(C)=CN1Cc2cccc3[nH]c(=S)n(c23)[C@@H](C)[C@@H]1C (relative stereo) | 14500
C[C@H]1Cn2c(=S)[nH]c3cccc(c32)CN1CC1CC1 | 60.3
CCCN1Cc2cc(Cl)cc3[nH]c(=S)n(c23)C(=O)C1C (configuration not stated) | 50100
CC(C)=CN1Cc2c(F)ccc3[nH]c(=S)n(c23)C[C@@H]1C | 5.82
CC(C)=CN1Cc2cc(Cl)cc3[nH]c(=S)n(c23)C[C@@H]1C | 42.7
COc1ccc2[nH]c(=S)n3c2c1CN(C=C(C)C)[C@@H](C)C3 | 34
C=C(C)N1Cc2cc(Cl)cc3[nH]c(=S)n(c23)C(C)C1 (configuration not stated) | 676
C#Cc1ccc2[nH]c(=S)n3c2c1CN(C=C(C)C)[C@@H](C)C3 | 29.5
CCCN1CCn2c(=O)[nH]c3cccc(c32)C1C (configuration not stated) | 83200
CC(C)=CN1[C@H](C)c2cccc3[nH]c(=S)n(c23)C[C@@H]1C (relative stereo) | 1150
CC(C)=CN1Cc2cc(Cl)cc3[nH]c(=O)n(c23)C[C@@H]1C | 182
COc1ccc2c3c1[nH]c(=O)n3C[C@H](C)N(C=C(C)C)C2 | 6610
C=CCN1Cc2cccc3[nH]c(=O)n(c23)C[C@@H]1C | 70100
CC(C)=CN1Cc2c(C)ccc3[nH]c(=O)n(c23)C[C@@H]1C | 1000
C[C@H]1Cn2c(=S)[nH]c3cc(Cl)cc(c32)CN1CC1CC1 | 33.9
CC(C)=CN1CCn2c(=O)[nH]c3ccc(Cl)c(c32)C1C (configuration not stated) | 145

SMILES | IC50 [nM]
CC(C)=CN1CCn2c(=S)[nH]c3ccc(Cl)c(c32)C1 | 45.7
CC(C)=CN1CCn2c(=O)[nH]c3cccc(c32)C1C (configuration not stated) | 12000
CC(C)=CN1Cc2c(Br)ccc3[nH]c(=S)n(c23)C[C@@H]1C | 3.01
C[C@H]1[C@H](C)n2c(=S)[nH]c3cccc(c32)CN1CC1CC1 (relative stereo) | 13500
S=c1[nH]c2cccc3c2n1C(Cc1ccccc1)C(Cc1ccccc1)N(CC1CC1)C3 (configuration not stated) | 10000
S=c1[nH]c2cc(Cl)cc3c2n1CCN1CCCCC31 (configuration not stated) | 2000
CC(C)=CN1CCn2c(=S)[nH]c3cc(Cl)cc(c32)C1 | 162
C[C@H]1Cn2c(=O)[nH]c3ccc(N(C)C)c(c32)CN1CC1CC1 | 6650
CC(C)=CN1Cc2c(C#N)ccc3[nH]c(=S)n(c23)C[C@@H]1C | 56.2
C=C(C)N1Cc2cccc3[nH]c(=O)n(c23)C(C)C1 (configuration not stated) | 32400
CC(C)=CN1Cc2cccc3[nH]c(=S)n(c23)C[C@@H]1C | 44.2
CC(C)=CN1C[C@H](C)n2c(=S)[nH]c3cccc(c32)[C@H]1C (relative stereo) | 25700
COc1ccc2c3c1[nH]c(=S)n3C[C@H](C)N(C=C(C)C)C2 | 4680
CC(C)=CN1CCn2c(=S)[nH]c3cc(Cl)cc(c32)C1C (configuration not stated) | 22.9
CC(C)=CN1Cc2cccc3[nH]c(=O)n(c23)CC1C(C)C (configuration not stated) | 10000
C=C(C)N1Cc2cccc3[nH]c(=O)n(c23)C(C(C)C)C1 (configuration not stated) | 12600
CC(C)=CN1CCn2c(=O)[nH]c3cccc(c32)C1 | 12600
C[C@H]1Cn2c(=O)[nH]c3cc(N(C)C)cc(c32)CN1CC1CC1 | 6650
CC(C)=CN1Cc2c(Br)ccc3[nH]c(=O)n(c23)C[C@@H]1C | 47.4
CC(C)=CN1Cc2cc(Cl)c(Cl)c3[nH]c(=S)n(c23)C[C@@H]1C | 25.6
CC(C)=CN1Cc2cc(F)cc3[nH]c(=S)n(c23)C[C@@H]1C | 25
CC(C)=CN1[C@H](C)Cn2c(=S)[nH]c3cc(Cl)cc(c32)[C@H]1C | 479
CC(C)=CN1[C@@H](C)Cn2c(=O)[nH]c3cc(Cl)cc(c32)[C@@H]1C | 5010
C=C(C)N1Cc2cccc3[nH]c(=O)n(c23)CC1C(C)C (configuration not stated) | 10000
CC(C)=CN1Cc2c(C)ccc3[nH]c(=S)n(c23)C[C@@H]1C | 13.6

SMILES | IC50 [nM]
C=C(CC)N1CCn2c(=O)[nH]c3cccc(c32)C1 | 37200
CCCN1Cc2cccc3[nH]c(=O)n(c23)C(C(C)C)C1 (configuration not stated) | 74100
CCOc1ccc2[nH]c(=S)n3c2c1CN(C=C(C)C)[C@@H](C)C3 | 95.9
CC(C)=CN1Cc2cccc3[nH]c(=S)n(c23)CC1C (configuration not stated) | 97.7
CC(C)=CN1Cc2c(C(N)=O)ccc3[nH]c(=O)n(c23)C[C@@H]1C | 6350
CC(C)=CN1Cc2c(I)ccc3[nH]c(=O)n(c23)C[C@@H]1C | 87.1
C=C(C)N1Cc2cccc3[nH]c(=O)n(c23)CC1CC (configuration not stated) | 50100
C[C@H]1Cn2c(=S)[nH]c3cc([N+](=O)[O-])cc(c32)CN1CC1CC1 | 2450
C=C(C)N1Cc2cccc3[nH]c(=O)n(c23)CC1(C)C | 22900
CC(C)=CN1Cc2c(Cl)ccc3[nH]c(=S)n(c23)C[C@@H]1C | 5.01
C#Cc1ccc2[nH]c(=O)n3c2c1CN(C=C(C)C)[C@@H](C)C3 | 437
CC(C)=CN1Cc2ccc(Br)c3[nH]c(=S)n(c23)C[C@@H]1C | 1070
C=C(C)N1Cc2cccc3[nH]c(=S)n(c23)C[C@@H]1C | 26.3
CC(C)=CN1CCn2c(=O)[nH]c3cc(Cl)cc(c32)C1C (configuration not stated) | 162
C/C=C1/C[C@H]2Cn3c(=S)[nH]c4cc(Cl)cc(c43)CN2C1 | 3800
CC(C)=CN1[C@@H](C)Cn2c(=S)[nH]c3cccc(c32)[C@@H]1C (relative stereo) | 41.7
C[C@H]1Cn2c(=O)[nH]c3cc(N)cc(c32)CN1CC1CC1 | 60500
CCCN1CCn2c(=O)[nH]c3cccc(c32)C1 | 89100
CC(C)=CN1Cc2cccc3[nH]c(=O)n(c23)C[C@@H]1C | 3310
CSc1ccc2[nH]c(=S)n3c2c1CN(C=C(C)C)[C@@H](C)C3 | 5
CC(C)=CN1CCn2c(=S)[nH]c3cccc(c32)C1C (configuration not stated) | 77.6
CC(C)=CN1Cc2c(I)ccc3[nH]c(=S)n(c23)C[C@@H]1C | 47.9
C[C@H]1Cn2c(=O)[nH]c3cc([N+](=O)[O-])cc(c32)CN1CC1CC1 | 33400
